Results from patent US11318111B2, “CCL5 inhibitors” (LAPKO INC., priority 2018, dated 2022).

Assays:
rosacea = assay: Topical treatment of patients with rosacea; assay type: in vivo, human; settings: two patients, lotion form, 28 days; not in the untreated areas
Experimental: Rosacea: Two patients with rosacea were treated with Compound 25 for 28 days in a lotion form.

hand and facial eczema = assay: Topical treatment of patients with hand and facial eczema; assay type: in vivo, human; settings: four patients, topically applied in cream base over 14 days
Experimental: To test the effect of the compounds on treatment of human dermatologic disorders associated with increased CCL5 production by keratinocytes, Compound 11 and Compound 21 were formulated into a topically applied cream at a concentration of 7%. The compounds in the cream base were applied topically to human subjects suffering from dermatitis in an area of the skin with active skin lesions. The control was the topical cream base composition without the active compounds. Outcome was measured by reduction or disappearance to the lesion in the treated area vs the control area.
Eczema: Four patients with hand and facial eczema were treated with Compound 97 topically applied in a cream base over a period of 14 days. By day 7 the eczema had resolved in the area treated in three of the patients and by day 12 in the fourth patient. The eczema persisted in the areas not so treated.

| SMILES | rosacea in treated area at end of course of therapy (rosacea) | eczema resolved in treated area by day (fourth patient) (hand and facial eczema; the fourth patient) [days] | eczema resolved in treated area by day (three of the patients) (hand and facial eczema; three of the patients, eczema persisted in untreated areas) [days] |
| --- | --- | --- | --- |
| CC(C)OC(=O)C(C)(C)Oc1ccc(C(F)(F)F)cc1 [Compound 25] | nearly disappeared | – | – |
| CC(C)OC(=O)C(C)(C)Oc1ccc(C(=O)c2ccc(Cl)cc2)cc1 [Compound 97] | – | ≤ 12 | ≤ 7 |
